We go through 10 compounds from patent US11384060B2, “Amide compounds and use thereof” (ALPHALA CO., LTD., priority 2017, dated 2022).

Structures are written as SMILES. Like-named read-outs stand apart in the source and are kept apart here.

Usually IC50 stands for the concentration that inhibits the measured activity by half.

For test [1], the target named is T1, glucagon receptor (GCGR) overexpressed CHO-K1 cells or human primary hepatocytes (Homo sapiens, UniProt P47871).
T1 construct: expressed in transfected cells; host or cells: GCGR overexpressed CHO-K1 cells or human primary hepatocytes (endogenous receptor)
In words: Glucagon cAMP inhibition assay (Cisbio cAMP Dynamic 2 HTRF). It counts as cell-based. Put shortly: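 HTRF read-out of glucagon-induced cAMP, with IC50 from non-linear regression. Cells (GCGR CHO-K1 or human primary hepatocytes) in HBSS/0.1% BSA/800 nM IBMX took compound dilutions for 30 min (final DMSO 1%), then EC50-level glucagon for 30 min at room temperature, then a 60 min lysis/detection step.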

The target in a further test is T2, glucagon receptor (GCGR) (Homo sapiens, UniProt P47871).
T2 construct: expressed in transfected cells; host or cells: CHO-K1 cells overexpressing GCGR (membrane fractions)
Description: I125-glucagon binding assay (competition, GCGR membrane fractions). The gist of the method: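 Competition of 0.0625 nM (final) I^125-glucagon for 30 min at 25° C, after 5 min compound preincubation, using 7.5 μg/well GCGR-overexpressing CHO-K1 membranes in 50 mM Tris pH 7.4, 0.5% BSA. Filtration onto PEI-coated GF/B, micro-beta counting, and non-linear regression gave IC50.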

Where [2] appears, read: inhibition of glucagon (EC50 concentration) induced cAMP production.
The mark [3] stands for this setting: competition with I125-glucagon 0.0625 nM, membrane fractions of GCGR overexpressed CHO-K1 cells.

T1 sequence (P47871 26-477): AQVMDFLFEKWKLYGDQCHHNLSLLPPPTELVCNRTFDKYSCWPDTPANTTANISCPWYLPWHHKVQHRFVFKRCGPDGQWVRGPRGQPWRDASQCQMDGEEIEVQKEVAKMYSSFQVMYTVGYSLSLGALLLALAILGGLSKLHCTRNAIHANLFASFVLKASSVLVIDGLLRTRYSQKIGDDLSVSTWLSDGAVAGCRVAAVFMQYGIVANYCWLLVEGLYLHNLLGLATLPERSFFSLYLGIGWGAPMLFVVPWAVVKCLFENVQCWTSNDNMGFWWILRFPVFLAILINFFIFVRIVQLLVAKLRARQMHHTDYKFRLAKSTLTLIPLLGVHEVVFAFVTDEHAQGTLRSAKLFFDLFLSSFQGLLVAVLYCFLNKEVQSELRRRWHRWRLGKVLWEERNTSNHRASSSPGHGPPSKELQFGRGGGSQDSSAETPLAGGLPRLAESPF
T2 sequence (P47871 26-477): as above

For the compound `CC[C@H](C)[C@@H](COc1ccc(-c2ccc(Cl)cc2Cl)nc1)Nc1ccc(C(=O)NCCC(=O)O)cc1` [Compound 10-15, 3-(4-(((2S,3S)-1-((6-(2,4-dichlorophenyl)pyridin-3-yl)oxy)-3-methylpentan-2-yl)amino)benzamido)propanoic Acid], the “IC50 cAMP” value in test [1] (setting [2]) was 301 nM. The compound further gave an IC50 at glucagon receptor (GCGR) (setting [3]) of 179 nM.

For `CC(C)[C@@H](COc1ccc(-c2cc3ccccc3o2)c(Cl)c1)Nc1ccc(C(=O)NCc2nnn[nH]2)cc1` [Compound 3-5, (S)—N-((1H-tetrazol-5-yl)methyl)-4-((1-(4-(benzofuran-2-yl)-3-chlorophenoxy)-3-methylbutan-2-yl)amino)benzamide], the “IC50 cAMP” value in test [1] (setting [2]) turned out to be 1863 nM. This compound showed a concentration for half-maximal inhibition (IC50) on glucagon receptor (GCGR) (setting [3]) of 117 nM.

As for `CCCC[C@@H](COc1ccc(-c2ccc(C(F)(F)F)cc2Cl)cc1)Nc1ccc(C(=O)NCCC(=O)O)cc1` [Compound 1-19, (S)-3-(4-((1-((2′-chloro-4′-(trifluoromethyl)-[1,1′-biphenyl]-4-yl)oxy)hexan-2-yl)amino)benzamido)propanoic Acid], the “IC50 cAMP” value in test [1] (setting [2]) was found to be 93 nM. The compound further gave an IC50 on glucagon receptor (GCGR) (setting [3]) of 11 nM.

In the case of `CCC(C)[C@@H](COc1ccc(-c2ccc(C(F)(F)F)cc2)cc1)Nc1ccc(C(=O)NCCC(=O)O)cc1` (stereo partly drawn) [Compound 1-5, 3-(4-(((2S)-3-methyl-1-((4′-(trifluoromethyl)-[1,1′-biphenyl]-4-yl)oxy)pentan-2-yl)amino)benzamido)propanoic Acid], in test [1] (setting [2]), the “IC50 cAMP” value was determined as 839 nM. Also, on glucagon receptor (GCGR) (setting [3]), the half-maximal inhibitory concentration (IC50) worked out at 213 nM.

For the compound `CC(C)[C@@H](COc1ccc(-c2ccc(C(F)(F)F)cc2Cl)c(Cl)c1)Nc1ccc(C(=O)NCCC(=O)O)cc1` [Compound 3-4, (S)-3-(4-((1-((2,2′-dichloro-4′-(trifluoromethyl)-[1,1′-biphenyl]-4-yl)oxy)-3-methylbutan-2-yl)amino)benzamido)propanoic Acid], the “IC50 cAMP” value in test [1] (setting [2]) amounted to 313.6 nM. The half-maximal inhibitory concentration (IC50) at glucagon receptor (GCGR) (setting [3]) was determined as 17 nM.

In the case of `CCCOC[C@H](Cc1ccc(-c2cc3ccccc3o2)cc1)Nc1ccc(C(=O)NCCC(=O)O)cc1` [Compound 19-26, (S)-3-(4-((1-(4-(benzofuran-2-yl)phenyl)-3-propoxypropan-2-yl)amino)benzamido)propanoic Acid], the “IC50 cAMP” value in test [1] stood at 902.8 nM. The compound further gave an IC50 at glucagon receptor (GCGR) of 592 nM.

Consider `CC(C)[C@@H](COc1ccc(-c2ccc(C(F)(F)F)cc2)cc1)Nc1ccc(C(=O)NCCC(=O)O)nc1` [Compound 9-3, (S)-3-(5-((3-methyl-1-((4′-(trifluoromethyl)-[1,1′-biphenyl]-4-yl)oxy)butan-2-yl)amino)picolinamido)propanoic Acid], for which the “IC50 cAMP” value in test [1] (setting [2]) is on record as 487 nM. The IC50 at glucagon receptor (GCGR) (setting [3]) worked out at 120 nM.

`CC[C@H](C)[C@@H](COc1ccc(-c2ccc(C(F)(F)F)cc2F)nc1)Nc1ccc(C(=O)NCCC(=O)O)cc1` [Compound 10-14, 3-(4-(((2S,3S)-1-((6-(2-fluoro-4-(trifluoromethyl)phenyl)pyridin-3-yl)oxy)-3-methylpentan-2-yl)amino)benzamido)propanoic Acid]: the “IC50 cAMP” value in test [1] (setting [2]) was found to be 497.1 nM. For the same compound, the half-maximal inhibitory concentration (IC50) on glucagon receptor (GCGR) (setting [3]) turned out to be 306 nM.

For `CC(C)C[C@@H](COc1cc(F)c(-c2ccc(Cl)cc2Cl)c(F)c1)Nc1ccc(C(=O)NCCC(=O)O)cc1` [Compound 7-8, (S)-3-(4-((1-((2′,4′-dichloro-2,6-difluoro-[1,1′-biphenyl]-4-yl)oxy)-4-methylpentan-2-yl)amino)benzamido)propanoic Acid], the “IC50 cAMP” value in test [1] (setting [2]) is on record as 329 nM. Also, on glucagon receptor (GCGR) (setting [3]), the IC50 was found to be 49 nM.

Regarding `CC[C@H](C)[C@@H](COc1cc(C)c(-c2ccc(C(F)(F)F)cc2)c(C)c1)Nc1ccc(C(=O)NCCC(=O)O)cc1` [Compound 2-10, 3-(4-(((2S,3S)-1-((2,6-dimethyl-4′-(trifluoromethyl)-[1,1′-biphenyl]-4-yl)oxy)-3-methylpentan-2-yl)amino)benzamido)propanoic Acid], the “IC50 cAMP” value in test [1] (setting [2]) is recorded as 241.4 nM. For the same compound, the IC50 on glucagon receptor (GCGR) (setting [3]) stood at 90 nM.
